# Data published in publication PMC12439480, “Dimeric CCK2R radiotheranostic tracers synergize with mTOR inhibition for enhanced tumor therapy” (Theranostics, 2025).
# Numbered stars: 1 amine (or outer) side, 2 acyl side, 3 side chain; on linkers, the order of the positions; unused ones are H or OH. Square brackets hold non-standard residues; d marks the D form. Peptide text beside a SMILES is read from it. * marks the point of attachment. DOTA = O=C(O)CN1CCN(CC(=O)O)CCN(CC(=O)*)CCN(CC(=O)O)CC1; d(γGlu) = O=C(O)[C@@H](CCC(=O)[*:2])N[*:1]; 1Nal = N[C@@H](Cc1cccc2ccccc12)C(=O)O; NMeNle = CCCC[C@H](NC)C(=O)O; PEG4 = NCCOCCOCCOCCOCCC(=O)O
# Tested on: AR42J tumor-bearing mice
# Assay: in vivo
# Parameters: species or system BALB/c nude mice
# Details: mouse, 1 h
# Experimental: To complement the imaging studies, biodistribution experiments were performed. AR42J tumor-bearing mice were intravenously injected with 3.7 MBq of [^68Ga]Ga-DOTA-CCK2R-dimer (≈ 120 pmol) or [^68Ga]Ga-DOTA-CCK-66 (≈ 210 pmol) (dissolved in 200 μL of saline; n = 3/group). The mice were sacrificed at 30, 60, and 120 min post-injection, and the tissues of interest were excised, weighed, and analyzed for radioactivity using a γ-counter. For blocking studies, a 400-fold excess of the lead compound was co-administered, and the mice were sacrificed at 1 h post-injection.
# All animal studies were approved by the Ethics Committee of Fudan University
# Shanghai Cancer Center (No. FUSCC-IACUC- S2023- 0003). Five-week-old female
# BALB/c nude mice were purchased from Shanghai SLAC Laboratory Animal
# Company. To establish cell-derived xenograft (CDX) models, 1 × 10⁶ AR42J cells
# (100 μL) were subcutaneously inoculated into the right shoulder of each mouse. […]
smiles,measurement,value
"CCCC[C@@H](C(=O)N[C@@H](CC(=O)O)C(=O)N[C@@H](Cc1cccc2ccccc12)C(N)=O)N(C)C(=O)[C@H](Cc1c[nH]c2ccccc12)NC(=O)CCOCCOCCOCCOCCNC(=O)CC[C@@H](NC(=O)CN1CCN(CC(=O)O)CCN(CC(=O)O)CCN(CC(=O)O)CC1)C(=O)O [[68Ga]Ga-DOTA-CCK-66, metal not drawn, reference compound] ({DOTA-d(γGlu)-PEG4}-W[NMeNle]D[1Nal]-NH2)",Bladder uptake,1.15 ± 1.21 %ID/g
same,Kidney uptake,12.68 ± 3.71 %ID/g
same,Liver uptake,0.96 ± 0.26 %ID/g
same,Stomach uptake,1.49 ± 0.64 %ID/g
